# Measurements taken from US8785436B2, “1,3-oxazines as BACE 1 and/or BACE2 inhibitors” (Hoffmann-La Roche Inc., priority 2011, dated 2014).
# Structures can show the parent of a compound that is named as a salt.
# Target: T1, BACE1 (Homo sapiens, UniProt P56817)
# T1 construct: Human HEK293 cells which are stably transfected with a vector expressing a cDNA of the human APP wt gene (APP695); endogenous in cells; host or cells: HEK293 cells stably expressing human APP695 wt
# Assay: Cellular Aβ-lowering assay b) (Abeta 40 AlphaLISA, HEK293 APP cells)
# Type: cell-based
# Settings: 18-20 hrs incubation, read-out: BACE1 cell act. Aβ40 IC50
# Protocol: Cellular Aβ-Lowering Assay:
# b) Alternatively, the Abeta 40 AlphaLISA Assay can be used. The HEK293 APP cells were seeded in 96 well Microtiter plates in cell culture medium (Iscove's, plus 10% (v/v) fetal bovine serum, penicillin/streptomycin) to about 80% confluency and the compounds were added at a 3× concentration in 1/3 volume of culture medium (final DMSO concentration was kept at 1% v/v). After 18-20 hrs incubation at 37° C. and 5% CO2 in a humidified incubator, the culture supernatants were harvested for the determination of Aβ 40 concentrations using Perkin-Elmer Human Amyloid beta 1-40 (high specificity) Kit (Cat# AL275C).
# In a Perkin-Elmer White Optiplate-384 (Cat#6007290), 2 ul culture supernatants were combined with 2 μl of a 10× AlphaLISA Anti-hAβ Acceptor beads+Biotinylated Antibody Anti-Aβ 1-40 Mix (50 μg/mL/5 nM). After 1 hour room temperature incubation, 16 μl of a 1.25× preparation of Streptavidin (SA) Donor beads (25 μg/mL) were added and incubated for 30 minutes in the Dark. Light Emission at 615 nm was then recorded using EnVision-Alpha Reader. Levels of Aβ 40 in the culture supernatants were calculated as percentage of maximum signal (cells treated with 1% DMSO without inhibitor). The IC50 values were calculated using the Excel XLfit software.
# T1 sequence (P56817 46-501): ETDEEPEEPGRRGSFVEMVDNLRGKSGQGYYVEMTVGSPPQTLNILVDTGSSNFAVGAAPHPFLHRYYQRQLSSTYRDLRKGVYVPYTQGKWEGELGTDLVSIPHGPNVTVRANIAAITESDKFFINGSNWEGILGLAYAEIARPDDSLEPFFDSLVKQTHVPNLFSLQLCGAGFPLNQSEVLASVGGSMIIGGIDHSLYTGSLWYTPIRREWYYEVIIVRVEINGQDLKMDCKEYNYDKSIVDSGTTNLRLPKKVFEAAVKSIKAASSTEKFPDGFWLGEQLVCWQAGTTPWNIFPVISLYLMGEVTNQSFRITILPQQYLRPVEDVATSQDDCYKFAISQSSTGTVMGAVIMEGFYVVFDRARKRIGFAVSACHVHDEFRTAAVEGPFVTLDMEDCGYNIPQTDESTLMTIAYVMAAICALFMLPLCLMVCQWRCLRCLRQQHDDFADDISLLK
row,IC50,SMILES
1,1210 nM,"CC1(C)OC(N)=N[C@](C)(c2cc(NC3CCC(c4ccccc4)C3)ccc2F)C1(F)F (mixture of isomers) [Example 49, (R)-5,5-Difluoro-4-[2-fluoro-5-((1RS,3RS)-3-phenyl-cyclopentylamino)-phenyl]-4,6,6-trimethyl-5,6-dihydro-4H-[1,3]oxazin-2-ylamine]"
2,3700 nM,"C[C@]1(c2cccc(OCC3CC3(F)F)c2)N=C(N)OCC1(F)F (mixture of isomers) [Example 57, (R)-4-[5-((RS)-2,2-Difluoro-cyclopropylmethoxy)-phenyl]-5,5-difluoro-4-methyl-5,6-dihydro-4H-[1,3]oxazin-2-ylamine]"
3,420 nM,"C[C@]1(C2CC2C(=O)Nc2cccc3cc(Cl)cnc23)N=C(N)OCC1(F)F (stereo in doubt) [Example 62, (1S,2S)-rel-2-((R)-2-Amino-5,5-difluoro-4-methyl-5,6-dihydro-4H-[1,3]oxazin-4-yl)-cyclopropanecarboxylic acid(3-chloro-quinolin-8-yl)-amide]"
4,1280 nM,"C[C@]1(c2cc(-c3nc4ccc(Cl)cc4o3)c(F)cc2F)N=C(N)OCC1(F)F [Example 15, (R)-4-[5-(6-Chloro-benzooxazol-2-yl)-2,4-difluoro-phenyl]-5,5-difluoro-4-methyl-5,6-dihydro-4H-[1,3]oxazin-2-ylamine Hydrochloride]"
5,880 nM,"C[C@]1(c2cc(-c3cncc(Cl)c3)c(F)cc2F)N=C(N)OCC1(F)F [Example 32, (R)-4-[5-(5-Chloro-pyridin-3-yl)-2,4-difluoro-phenyl]-5,5-difluoro-4-methyl-5,6-dihydro-4H-[1,3]oxazin-2-ylamine]"
6,380 nM,"C[C@]1(c2cc(-c3cncnc3)c(F)cc2F)N=C(N)OCC1(F)F [Example 33, (R)-4-(2,4-Difluoro-5-pyrimidin-5-yl-phenyl)-5,5-difluoro-4-methyl-5,6-dihydro-4H-[1,3]oxazin-2-ylamine]"
7,4170 nM,"CC1(C)OC(N)=N[C@](C)(c2cc(Nc3cccc(C(F)(F)F)n3)ccc2F)C1(F)F [Example 47, (R)-5,5-Difluoro-4-[2-fluoro-5-(6-trifluoromethyl-pyridin-2-ylamino)-phenyl]-4,6,6-trimethyl-5,6-dihydro-4H-[1,3]oxazin-2-ylamine]"
8,2880 nM,"CC1(C)OC(N)=N[C@](C)(c2cc(-c3cc(C#N)ccc3Cl)ccc2F)C1(F)F [Example 52, 3′-((R)-2-Amino-5,5-difluoro-4,6,6-trimethyl-5,6-dihydro-4H-[1,3]oxazin-4-yl)-6-chloro-4′-fluoro-biphenyl-3-carbonitrile]"
9,502 nM,"NC1=NC(c2cc(-c3cncc(Cl)c3)ccc2F)(C(F)F)CCO1 (stereo not drawn) [Example 53, 4-[5-(5-Chloro-pyridin-3-yl)-2-fluoro-phenyl]-4-difluoromethyl-5,6-dihydro-4H-[1,3]oxazin-2-ylamine]"
10,220 nM,"NC1=N[C@@](c2cc(-c3cncc(Cl)c3)ccc2F)(C(F)F)CCO1 [Example 54B, (S)-4-[5-(5-Chloro-pyridin-3-yl)-2-fluoro-phenyl]-4-difluoromethyl-5,6-dihydro-4H-[1,3]oxazin-2-ylamine]"
11,1450 nM,"CCc1ccc(Cc2nc3ccc([C@@]4(C)N=C(N)OCC4(F)F)cc3[nH]2)cc1 [Example 55, (R)-4-[2-(4-Ethyl-benzyl)-3H-benzoimidazol-5-yl]-5,5-difluoro-4-methyl-5,6-dihydro-4H-[1,3]oxazin-2-ylamine]"
12,800 nM,"C[C@]1(c2cc(NCc3cc(F)cc(F)c3)ccc2F)N=C(N)OC[C@@H]1F [Example 56, (4R,5R)-4-[5-(3,5-Difluoro-benzylamino)-2-fluoro-phenyl]-5-fluoro-4-methyl-5,6-dihydro-4H-[1,3]oxazin-2-ylamine]"
13,2010 nM,"C[C@]1(c2cccc(OCCC(F)(F)F)c2)N=C(N)OCC1(F)F [Example 58, (R)-5,5-Difluoro-4-methyl-4-[3-(3,3,3-trifluoro-propoxy)-phenyl]-5,6-dihydro-4H-[1,3]oxazin-2-ylamine]"
14,3120 nM,"C[C@]1(c2cccc(OCC3CC3)c2)N=C(N)OCC1(F)F [Example 59, (R)-4-(3-Cyclopropylmethoxy-phenyl)-5,5-difluoro-4-methyl-5,6-dihydro-4H-[1,3]oxazin-2-ylamine]"
15,4620 nM,"C[C@]1(c2cnn(-c3cccc(C#N)c3)c2)N=C(N)OCC1(F)F [Example 60, 3-[4-((R)-2-Amino-5,5-difluoro-4-methyl-5,6-dihydro-4H-[1,3]oxazin-4-yl)-pyrazol-1-yl]-benzonitrile]"
16,720 nM,"C#Cc1cccc(-n2cc([C@@]3(C)N=C(N)OCC3(F)F)cn2)c1 [Example 61, (R)-4-[1-(3-Ethynyl-phenyl)-1H-pyrazol-4-yl]-5,5-difluoro-4-methyl-5,6-dihydro-4H-[1,3]oxazin-2-ylamine]"
17,360 nM,"C[C@]1([C@@H]2C[C@H]2C(=O)Nc2cccc3cc(Cl)cnc23)N=C(N)OCC1(F)F [Example 63, (1R,2R)-((R)-2-Amino-5,5-difluoro-4-methyl-5,6-dihydro-4H-[1,3]oxazin-4-yl)-cyclopropanecarboxylic acid(3-chloro-quinolin-8-yl)-amide]"
18,180 nM,"C[C@]1([C@@H]2C[C@H]2C(=O)Nc2csc3cc(C#N)cnc23)N=C(N)OCC1(F)F [Example 65, (1R,2R)-2-((R)-2-Amino-5,5-difluoro-4-methyl-5,6-dihydro-4H-[1,3]oxazin-4-yl)-cyclopropanecarboxylic acid(6-cyano-thieno[3,2-b]pyridin-3-yl)-amide]"
19,1440 nM,"C[C@]1(c2cnn(-c3cccc(Br)c3)c2)N=C(N)OCC1(F)F [Intermediate K7.1, (R)-4-[1-(3-bromo-phenyl)-1H-pyrazol-4-yl]-5,5-difluoro-4-methyl-5,6-dihydro-4H-[1,3]oxazin-2-ylamine]"

# Target: T2, BACE2 (Rattus norvegicus, UniProt Q6IE75)
# T2 construct: endogenous cellular BACE2 in the Ins1e rat cell line; endogenous in cells; host or cells: INS-TMEM27 (INS1e-derived rat cell line with TetOn-inducible full-length hTMEM27)
# T2 sequence (Q6IE75 63-514): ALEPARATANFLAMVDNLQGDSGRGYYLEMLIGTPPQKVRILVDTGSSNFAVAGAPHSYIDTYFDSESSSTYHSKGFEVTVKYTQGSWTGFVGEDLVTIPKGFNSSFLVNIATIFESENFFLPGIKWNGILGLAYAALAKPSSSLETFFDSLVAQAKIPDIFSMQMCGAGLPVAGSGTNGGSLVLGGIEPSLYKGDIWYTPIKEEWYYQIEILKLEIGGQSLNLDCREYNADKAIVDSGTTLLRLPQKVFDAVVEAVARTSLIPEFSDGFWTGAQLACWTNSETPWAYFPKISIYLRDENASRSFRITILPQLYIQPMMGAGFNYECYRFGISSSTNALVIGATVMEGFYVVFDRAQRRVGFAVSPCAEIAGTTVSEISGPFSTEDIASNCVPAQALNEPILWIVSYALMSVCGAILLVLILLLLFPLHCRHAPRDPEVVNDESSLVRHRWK
# Assay: BACE inhibition by measuring cellular TMEM27 cleavage (INS-TMEM27 cells, ELISA)
# Type: cell-based
# Settings: INS-TMEM27 (Ins1e rat) cells, shed human TMEM27 by ELISA; read-out: BACE2 cell act. IC50
# Text: Assay for BACE Inhibition by Measuring Cellular TMEM27 Cleavage:
# The assay uses the principle of inhibition of human TMEM27 cleavage by endogenous cellular BACE2 in the Ins1e rat cell line and shedding from the cell surface into the culture medium, followed by detection in an ELISA assay Inhibition of BACE2 prevents the cleavage and shedding in a dose-dependent manner.
# The stable cell line “INS-TMEM27” represents an INS1e-derived cell line with inducible expression (using the TetOn system) of full-length hTMEM27 in a doxycycline-dependent manner. The cells are cultured throughout the experiment in RPMI1640+Glutamax (Invitrogen) Penicillin/Streptomycin, 10% Fetal bovine serum, […], […], 100 micrograms/ml G418 and 100 microgram/ml hygromycin and are grown inadherent culture at 37° C. in a standard CO2 cell culture incubator.
# INS-TMEM27 cells are seeded in 96-well plates. After 2 days in culture, BACE2 inhibitor is added in a range of concentrations as required by the assay and after a further two hours, doxycycline is added to a final concentration of 500 ng/ml. The cells are incubated for a further 46 hours and the supernatant harvested for detection of shed TMEM27.
# An ELISA assay (using a pair of mouse anti-human-TMEM27 antibodies, raised against the extracellular domain of TMEM27) is used for detection of TMEM27 in the culture medium. An EC50 for BACE2 inhibition is calculated using the ELISA readout for each inhibitor concentration with standard curve-fitting software such as XLFit for the Excel spreadsheet program.
row,IC50,SMILES
1,2750 nM,"CC1(C)OC(N)=N[C@](C)(c2cc(Nc3cccc(C(F)(F)F)n3)ccc2F)C1(F)F [Example 47, (R)-5,5-Difluoro-4-[2-fluoro-5-(6-trifluoromethyl-pyridin-2-ylamino)-phenyl]-4,6,6-trimethyl-5,6-dihydro-4H-[1,3]oxazin-2-ylamine]"
2,1350 nM,"C[C@]1([C@@H]2C[C@H]2C(=O)Nc2cccc3cc(Cl)cnc23)N=C(N)OCC1(F)F [Example 63, (1R,2R)-((R)-2-Amino-5,5-difluoro-4-methyl-5,6-dihydro-4H-[1,3]oxazin-4-yl)-cyclopropanecarboxylic acid(3-chloro-quinolin-8-yl)-amide]"
